The subject of assay [1] is T cells. Nature of the assay: LNP association and GFP mRNA expression in T cells of human PBMCs. The class given is cell-based. The note with it: for immune cell delivery potentiating ability in T cells, sterol panel: structural lipid component of the LNP, FIG. 31; for immune cell delivery potentiating ability in T cells, helper lipid panel: phospholipid component of the LNP, FIG. 32; for delivery and uptake by T cells, only cholesterol as structural lipid: Experiment 2, mean % cells expressing the mRNA relative to positive control (Compound X, β-sitosterol); for immune cell delivery potentiating ability in T cells, amino lipid panel: ionizable lipid component of the LNP, FIG. 30. The method, then: (§1) In a second series of experiments, additional compounds, were tested in the LNPs for their ability to enhance delivery to T cells. For these experiments, the association of the LNP with cells and the expression of mRNA-encoding protein within the transfected cells was assessed at the cell-by-cell level. Peripheral blood mononuclear cells (PBMCs) from human donors were used. PBMCs were predominately T cells (40-60%), B cells (3-15%), and monocytes (15-35%), but also contained small numbers of other cell types. LNPs were incubated with serum or PBS for 30 minutes and then added to the PBMCs. The LNP concentration was 0.050 mg/ml, the LNP volume was 0.1 ml.
(§2) LNPs contained 0.1% Rhodamine-DOPE in addition to the other LNP components to facilitate detection. Thus, the ratios set forth in the tables below include 0.1 for the rhodamine label. For example, 50:10:10:27.9:2:0.1 AL:DSPC:chol:sterol:Cmp 428 indicates 50% amino lipid as the ionizable lipid, 10% DSPC as the phospholipid, 10% cholesterol, 27.9% phytosterol, 2% Compound 428 as the PEG lipid and 0.1% for the rhodamine-DOPE label. To prepare a non-labeled LNP, the same ratios are used except that the 0.1% rhodamine label is omitted and an additional 0.1% of structural lipid (cholesterol or cholesterol/phytosterol blend) is used (e.g., 27.9% becomes 28%).
(§3) Cells were sorted by flow cytometry into subsets based on expression of certain markers: CD3 (T cells), CD20 (B cells), and CD3-, CD20-, CD14+(Monocytes).
(§4) mRNA encoding GFP was used as a model agent to effect expression of an intracellular protein.
(§5) When conducting flow cytometry, the Y-axis was signal from the rhodamine tag on the LNP and the X-axis was the GFP signal showing expression of the protein.
(§6) The “associated” population is any rhodamine+ and/or GFP+ cell and the percent of these cells was calculated by dividing by the total number of cells. The “expression” population is any GFP+ cell and the percent of these cells was calculated by dividing by the total number of cells. The percent of associated cells expressing was obtained by dividing the % expressing cells by the % associated cells.

For assay [2], the system named is monocytes. Nature of the assay: LNP association and GFP mRNA expression in monocytes of human PBMCs. The format is cell-based. The settings on record: for immune cell delivery potentiating ability in monocytes, sterol panel: structural lipid component, FIG. 38; for immune cell delivery potentiating ability in monocytes, helper lipid panel: phospholipid component, FIG. 39; for immune cell delivery potentiating ability in monocytes, amino lipid panel: ionizable lipid component, FIG. 37. The method, then: as §1, with “this Example, LNPs were made with various lipid components and at different ratios and” for “a second series of experiments, additional compounds,”, “tested” for “tested in the LNPs”, “transfect monocytes in vitro.” for “enhance delivery to T cells.”, “(40-60%)” for “(40-60%),”
as §2, §3, §4, §5, §6

The subject of assay [3] is splenic CD3+ T cells. Nature of the assay: Transfection of splenic T cells in vivo in mice. The settings on record: for transfection of CD3+ T cells in vivo, only cholesterol as structural lipid: FIG. 36 lanes 6 and 8, relative to positive control LNP (Compound X, β-sitosterol); for capability to transfect splenic CD3+ T cells in vivo: as ionizable lipid, 0.5 mg/kg i.v., 24 hours, FIG. 36. The method, then:
In this Example, LNPs were made with various lipid components identified in the in vitro screens described in Example 17 and mice were administered the LNPs encapsulating a murine OX40L-encoding mRNA. The compositions shown below in Table 26 were tested in which the ratios of the components in each composition was 50% ionizable lipid, 10% phospholipid, 38.5% structural lipid and 1.5% PEG lipid.
Mice were treated intravenously with a single injection at a dose concentration of 0.1 mg/ml and at a dose level of 0.5 mg/kg. PBS was used as a negative control.

The subject of assay [4] is T cells. Nature of the assay: Additional LNPs: T cell transfection in vitro, mOX40L mRNA, labeled LNPs. The class given is cell-based, human. The settings on record: for immune cell delivery potentiating ability in T cells, amino lipid panel: ionizable lipid component, FIG. 43. How it is done: In this Example, additional LNPs comprising various lipid components and at different ratios were made and tested for their ability to transfect T cells in vitro. Transfection was performed as in Example 5 using LNPs encapsulating an mRNA encoding mouse OX40L. LNPs were labeled and the results were determined for the mean % cells with LNPs associated, the mean % cells expressing mOX40L and the % of LNP-associated cells expressing mOX40L, as described hereinbefore.

The structures appear in SMILES notation.

Consider `CC[C@H](CC[C@@H](C)[C@H]1CC[C@H]2[C@@H]3CC[C@H]4C[C@@H](O)CC[C@]4(C)[C@H]3CC[C@]12C)C(C)C` [β-sitostanol], for which the “immune cell delivery potentiating ability in T cells, sterol panel” value in assay [1] is “exhibited immune cell delivery potentiating ability in T cells”. For the same compound, in assay [2], the “immune cell delivery potentiating ability in monocytes, sterol panel” value was “exhibited immune cell delivery potentiating ability in monocytes”.
As to `CC[C@H](CC[C@@H](C)[C@H]1CC[C@H]2[C@@H]3CC=C4C[C@@H](O)CC[C@]4(C)[C@H]3CC[C@]12C)C(C)C` [β-sitosterol, beta-sitosterol, reference compound], the “immune cell delivery potentiating ability in T cells, sterol panel” value in assay [1] is “exhibited immune cell delivery potentiating ability in T cells”. In addition, in assay [2], the “immune cell delivery potentiating ability in monocytes, sterol panel” value is “exhibited immune cell delivery potentiating ability in monocytes”.
For the compound `CCCCCCCCCCCCCC(=O)OCC(COP(=O)(O)OCCN)OC(=O)CCCCCCCCCCCCC` (stereo not drawn) [DMPE], in assay [1], the “immune cell delivery potentiating ability in T cells, helper lipid panel” value was “exhibited immune cell delivery potentiating ability in T cells”. In addition, the “immune cell delivery potentiating ability in monocytes, helper lipid panel” value in assay [2] is “exhibited immune cell delivery potentiating ability in monocytes”.
With `CCCCCCCCCOC(=O)CCCCCCCN(CCCCCCCOC(=O)C(CCCCCCCC)CCCCCCCC)CCCNc1c(NC)c(=O)c1=O` [Compound I-326], in assay [1], the “delivery and uptake by T cells, only cholesterol as structural lipid” value is “effective at potentiating delivery and uptake by T cells”; the “immune cell delivery potentiating ability in T cells, amino lipid panel” value is reported as “exhibited immune cell delivery potentiating ability in T cells”. In assay [3], the “transfection of CD3+ T cells in vivo, only cholesterol as structural lipid” value was “effective at potentiating transfecting CD3+ T cells in vivo” and the “capability to transfect splenic CD3+ T cells in vivo” value (from here on “capability”) is on record as “even higher capability to transfect splenic CD3+ T cells in vivo than the positive control LNP containing Compound X”. The “immune cell delivery potentiating ability in T cells, amino lipid panel” value in assay [4] is reported as “exhibited immune cell delivery potentiating ability in T cells”.
`CCCCCCCCCOC(=O)CCCCCCCN(CCCCCCCC(=O)OC(CCCCCCCC)CCCCCCCC)CCCNC(=O)OC` [Compound I-181]: the “immune cell delivery potentiating ability in T cells, amino lipid panel” value in assay [1] and in assay [4] was “exhibited immune cell delivery potentiating ability in T cells” in each case. For the same compound, the “immune cell delivery potentiating ability in monocytes, amino lipid panel” value in assay [2] was “exhibited immune cell delivery potentiating ability in monocytes”.
With `CCCCCCCCCCC(=O)CCCCCCCN(CCCCCCCC(=O)OC(CCCCCCCC)CCCCCCCC)CCCNC(=S)N(C)C` [Compound I-111], the “immune cell delivery potentiating ability in T cells, amino lipid panel” value in assay [1] is listed as “exhibited immune cell delivery potentiating ability in T cells”. Moreover, the “immune cell delivery potentiating ability in monocytes, amino lipid panel” value in assay [2] is “exhibited immune cell delivery potentiating ability in monocytes”.
On to `CCCCCCCCC(CCCCCCCC)OC(=O)CCCCCCCN(CCCCCCCC(=O)OCC(C)CCCCCCC)CCCNc1c(NC)c(=O)c1=O` (stereo not drawn) [Compound I-321], for which, in assay [1], the “delivery and uptake by T cells, only cholesterol as structural lipid” value is “effective at potentiating delivery and uptake by T cells”; the “immune cell delivery potentiating ability in T cells, amino lipid panel” value is given as “exhibited immune cell delivery potentiating ability in T cells”. In assay [3], the “transfection of CD3+ T cells in vivo, only cholesterol as structural lipid” value was “effective at potentiating transfecting CD3+ T cells in vivo” and the “capability” value is “even higher capability to transfect splenic CD3+ T cells in vivo than the positive control LNP containing Compound X”. In addition, in assay [4], the “immune cell delivery potentiating ability in T cells, amino lipid panel” value is given as “exhibited immune cell delivery potentiating ability in T cells”.
With `CC(C)[C@H](C)CC[C@@H](C)[C@H]1CC[C@H]2[C@@H]3CC=C4C[C@@H](O)CC[C@]4(C)[C@H]3CC[C@]12C` [camposterol], the “immune cell delivery potentiating ability in T cells, sterol panel” value in assay [1] is “exhibited immune cell delivery potentiating ability in T cells”. For the same compound, the “immune cell delivery potentiating ability in monocytes, sterol panel” value in assay [2] is reported as “exhibited immune cell delivery potentiating ability in monocytes”.
Take `CCCCCCCCC(CC)OC(=O)CCCCCCCN(CCCCCCCC(=O)OC(CCCCCCCC)CCCCCCCC)CCCNc1c(NC)c(=O)c1=O` (stereo not drawn) [Compound I-301, Heptadecan-9-yl 8-((3-((2-(methylamino)-3,4-dioxocyclobut-1-en-1-yl)amino)propyl)(8-oxo-8-(undecan-3-yloxy)octyl)amino)octanoate]: the “immune cell delivery potentiating ability in T cells, amino lipid panel” value in assay [1] and in assay [4] was “exhibited immune cell delivery potentiating ability in T cells” each time. In addition, in assay [3], the “capability” value is “even higher capability to transfect splenic CD3+ T cells in vivo than the positive control LNP containing Compound X”.
On to `CCCCCCCC/C=C\CCCCCCCC(=O)OC[C@H](COP(=O)([O-])OCC[N+](C)(C)C)OC(=O)CCCCCCC/C=C\CCCCCCCC` [DOPC, 1,2-dioleoyl-sn-glycero-3-phosphocholine, reference compound], for which the “immune cell delivery potentiating ability in monocytes, helper lipid panel” value in assay [2] was “exhibited immune cell delivery potentiating ability in monocytes”.
As for `CCCCCCCCCCCCCCCCCC(=O)OCC(COP(=O)([O-])OCC[N+]1(C)CCOCC1)OC(=O)CCCCCCCCCCCCCCCCC` (stereo not drawn) [Compound H-409], the “immune cell delivery potentiating ability in T cells, helper lipid panel” value in assay [1] is on record as “exhibited immune cell delivery potentiating ability in T cells”; in assay [4] (phospholipid component, FIG. 45) it was “exhibited immune cell delivery potentiating ability in T cells”. Besides, the “immune cell delivery potentiating ability in monocytes, helper lipid panel” value in assay [2] is “exhibited immune cell delivery potentiating ability in monocytes”.
Turning to `CCCCCCCCCOC(=O)CCCCCCCN(CCCCCCCC(=O)OC(CCCCCCCC)CCCCCCCC)CCCNS(C)(=O)=O` [Compound I-109], the “immune cell delivery potentiating ability in T cells, amino lipid panel” value in assay [1] is listed as “exhibited immune cell delivery potentiating ability in T cells”. For the same compound, in assay [2], the “immune cell delivery potentiating ability in monocytes, amino lipid panel” value is reported as “exhibited immune cell delivery potentiating ability in monocytes”.
`CC[C@H](/C=C/[C@@H](C)[C@H]1CC[C@H]2[C@@H]3CC=C4C[C@@H](O)CC[C@]4(C)[C@H]3CC[C@]12C)C(C)C` [stigmasterol, reference compound]: the “immune cell delivery potentiating ability in monocytes, sterol panel” value in assay [2] is “exhibited immune cell delivery potentiating ability in monocytes”.
Turning to `CCCCCCCCCOC(=O)CCCCCCCN(CCCCCCCC(=O)OC(CCCCCCCC)CCCCCCCC)CCCNc1c(NC)c(=O)c1=O` [Compound I-182, Heptadecan-9-yl 8-((3-((2-(methylamino)-3,4-dioxocyclobut-1-en-1-yl)amino)propyl)(8-(nonyloxy)-8-oxooctyl)amino)octanoate], the “immune cell delivery potentiating ability in T cells, amino lipid panel” value in assay [1] and in assay [4] was “exhibited immune cell delivery potentiating ability in T cells” each time. In addition, the “immune cell delivery potentiating ability in monocytes, amino lipid panel” value in assay [2] is listed as “exhibited immune cell delivery potentiating ability in monocytes”.

The values above are taken from patent US20230027864A1, “COMPOSITIONS AND METHODS FOR DELIVERY OF AGENTS TO IMMUNE CELLS” (ModernaTX, Inc., priority 2018, published 2023).
